{
  "source": "paper PMC5826917",
  "about": "“A small molecule inhibitor of Nicotinamide N-methyltransferase for the treatment of metabolic disorders” (Scientific Reports, 2018)",
  "key": {"[1]": {"conditions": "C57BL/6, mouse, in vivo, iv"}, "[2]": {"molecular_target": "Cannabinoid Receptor 1 (CB1) (Homo sapiens, UniProt P21554)", "sequence (P21554 whole entry)": "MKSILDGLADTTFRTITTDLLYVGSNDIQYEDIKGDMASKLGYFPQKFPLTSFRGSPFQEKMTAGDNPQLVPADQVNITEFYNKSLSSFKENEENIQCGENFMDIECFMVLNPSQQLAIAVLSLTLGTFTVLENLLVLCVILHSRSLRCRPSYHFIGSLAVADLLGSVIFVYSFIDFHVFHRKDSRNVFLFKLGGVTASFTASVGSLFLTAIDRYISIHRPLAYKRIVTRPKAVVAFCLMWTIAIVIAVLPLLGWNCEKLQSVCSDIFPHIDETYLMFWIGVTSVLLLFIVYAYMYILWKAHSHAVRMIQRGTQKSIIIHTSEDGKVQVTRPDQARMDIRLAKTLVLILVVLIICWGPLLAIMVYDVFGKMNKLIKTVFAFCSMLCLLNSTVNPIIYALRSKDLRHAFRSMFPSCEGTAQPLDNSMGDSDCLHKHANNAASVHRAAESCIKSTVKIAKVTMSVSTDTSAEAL", "test": "Selectivity panel: CB1", "assay_type": "cell-based", "procedure": "(§1) Supplement 41598_2018_22081_MOESM1_ESM.docx, table 2: Supplementary table 2: Selectivity profile of JBSNF-000088 (at 10 µM) vs a panel of 34 receptors, channels and enzymes. | column: E% (agonistic); I% (antagonistic or inhibitory)"}, "hERG": {"molecular_target": "hERG (Homo sapiens, UniProt Q12809)", "conditions": "10 µM"}, "plasma MNA levels": {"system": "plasma MNA levels", "procedure": "Samples for MNA were analyzed employing a fit-for-purpose LC-MS/MS method. PE-Sciex API-4000 triple quadrupole (PerkinElmerSciex Instruments, Boston, MA) mass spectrometer was employed for this analysis. Samples (5 µL) were injected onto Kinetex HILIC (50 × 4.6 mm, 2.6 µm; Phenomenex, Torrance, CA, USA) column connected to Shimadzu VP (Shimadzu, Japan) LC system. The gradient mobile phase mixture of 0.2% formic acid and acetonitrile was delivered at a flow rate of 0.45 ml min-1 into the mass spectrometer electrospray ionization (ESI) chamber. Quantitation was achieved by MS/MS detection in positive ion mode for MNA and internal standard (d4–MNA). Detection of the ions was performed in the multiple reaction monitoring (MRM) mode, monitoring the transition of the m/z 137 precursor ion to the m/z 92 product ion for MNA and m/z 141 precursor ion to the m/z 84 product ion for d4-MNA (internal standard).\nA simple protein precipitation extraction method was followed for extraction of N-methylnicotinamide from plasma and various tissue homogenate samples. The tissue samples were homogenized with 1:3 proportions of phosphate buffer saline (PBS) and this homogenate was used for N-Methylnicotinamide determinations. […] The supernatant was separated and transferred to pre-labeled HPLC vials and analyzed by LC-MS/MS system."}, "cytochrome P450 enzymes": {"system": "cytochrome P450 enzymes", "conditions": "20 µM"}, "NaV1.5": {"molecular_target": "NaV1.5 (Homo sapiens, UniProt Q14524)", "test": "NaV1.5 assay", "conditions": "tested at 30 µM, result printed @ 10 µM; data not shown"}, "[3]": {"molecular_target": "Serotonin Receptor 2A (5HT2A) (Homo sapiens, UniProt P28223)", "sequence (P28223 whole entry)": "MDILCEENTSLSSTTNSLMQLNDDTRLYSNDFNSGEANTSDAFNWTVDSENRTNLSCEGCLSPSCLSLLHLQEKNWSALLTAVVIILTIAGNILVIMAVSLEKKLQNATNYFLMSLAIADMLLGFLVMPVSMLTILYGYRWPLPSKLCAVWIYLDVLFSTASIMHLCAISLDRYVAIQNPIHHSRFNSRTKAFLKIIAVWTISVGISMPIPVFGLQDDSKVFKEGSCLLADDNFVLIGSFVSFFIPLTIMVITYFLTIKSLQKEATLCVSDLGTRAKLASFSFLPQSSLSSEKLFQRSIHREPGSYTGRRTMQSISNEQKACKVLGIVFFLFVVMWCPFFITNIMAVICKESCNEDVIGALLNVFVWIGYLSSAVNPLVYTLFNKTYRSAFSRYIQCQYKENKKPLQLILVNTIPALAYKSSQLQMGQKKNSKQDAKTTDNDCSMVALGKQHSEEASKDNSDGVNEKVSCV", "test": "Selectivity panel: 5HT2A", "assay_type": "cell-based", "procedure": "as §1"}, "[4]": {"molecular_target": "Adenosine Receptor 1 (ADORA1) (Homo sapiens, UniProt P30542)", "sequence (P30542 whole entry)": "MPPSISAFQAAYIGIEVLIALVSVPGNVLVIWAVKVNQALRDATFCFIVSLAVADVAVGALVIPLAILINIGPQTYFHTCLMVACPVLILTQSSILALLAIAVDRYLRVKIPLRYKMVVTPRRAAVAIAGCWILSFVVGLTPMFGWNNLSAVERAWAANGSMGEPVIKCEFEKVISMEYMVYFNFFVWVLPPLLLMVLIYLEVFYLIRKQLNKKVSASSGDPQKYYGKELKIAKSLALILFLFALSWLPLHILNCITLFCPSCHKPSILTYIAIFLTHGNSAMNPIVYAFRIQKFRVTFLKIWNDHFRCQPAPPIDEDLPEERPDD", "test": "Selectivity panel: ADORA1", "assay_type": "cell-based"}, "[5]": {"molecular_target": "Nicotinic AChR alpha4 beta2 (nAChRa4b2) (Homo sapiens, UniProt P17787+P43681)", "sequence (P43681 29-627 limits assumed)": "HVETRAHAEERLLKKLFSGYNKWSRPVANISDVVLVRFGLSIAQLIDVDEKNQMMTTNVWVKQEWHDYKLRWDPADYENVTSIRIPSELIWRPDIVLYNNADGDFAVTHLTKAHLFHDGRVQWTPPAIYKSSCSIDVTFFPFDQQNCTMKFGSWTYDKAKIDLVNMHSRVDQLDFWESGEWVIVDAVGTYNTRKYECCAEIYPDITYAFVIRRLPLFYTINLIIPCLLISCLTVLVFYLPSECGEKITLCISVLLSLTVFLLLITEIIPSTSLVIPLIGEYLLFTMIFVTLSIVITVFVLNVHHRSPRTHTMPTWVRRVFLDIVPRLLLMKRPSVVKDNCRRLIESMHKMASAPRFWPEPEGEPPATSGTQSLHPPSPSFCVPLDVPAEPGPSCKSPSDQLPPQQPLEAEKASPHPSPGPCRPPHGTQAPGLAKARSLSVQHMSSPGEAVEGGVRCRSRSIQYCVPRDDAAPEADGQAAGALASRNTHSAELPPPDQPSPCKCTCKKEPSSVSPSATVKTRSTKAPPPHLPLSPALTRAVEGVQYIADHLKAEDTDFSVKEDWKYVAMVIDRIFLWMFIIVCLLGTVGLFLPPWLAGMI", "sequence (P17787 26-502)": "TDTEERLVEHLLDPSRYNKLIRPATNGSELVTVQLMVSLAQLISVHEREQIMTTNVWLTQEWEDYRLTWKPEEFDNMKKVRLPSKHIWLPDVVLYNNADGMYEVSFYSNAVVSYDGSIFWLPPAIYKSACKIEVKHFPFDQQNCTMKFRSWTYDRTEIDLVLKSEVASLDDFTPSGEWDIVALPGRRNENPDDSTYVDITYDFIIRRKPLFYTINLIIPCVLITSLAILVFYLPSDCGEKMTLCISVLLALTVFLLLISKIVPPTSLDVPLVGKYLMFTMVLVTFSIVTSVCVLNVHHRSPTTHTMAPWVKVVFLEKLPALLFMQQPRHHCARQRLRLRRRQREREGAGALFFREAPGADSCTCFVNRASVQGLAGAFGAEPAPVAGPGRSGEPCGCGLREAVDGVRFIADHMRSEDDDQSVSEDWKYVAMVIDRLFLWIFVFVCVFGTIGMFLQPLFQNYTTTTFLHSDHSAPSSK", "test": "Selectivity panel: nAChRa4b2", "assay_type": "binding", "conditions": "read-out: I% (antagonistic or inhibitory), nAChRa4b2", "procedure": "(§2) Supplement 41598_2018_22081_MOESM1_ESM.docx, table 2: Supplementary table 2: Selectivity profile of JBSNF-000088 (at 10 µM) vs a panel of 34 receptors, channels and enzymes. | column: I% (antagonistic or inhibitory)"}, "[6]": {"molecular_target": "Adrenoreceptor alpha 2A (ADRA2A) (Homo sapiens, UniProt P08913)", "sequence (P08913 whole entry)": "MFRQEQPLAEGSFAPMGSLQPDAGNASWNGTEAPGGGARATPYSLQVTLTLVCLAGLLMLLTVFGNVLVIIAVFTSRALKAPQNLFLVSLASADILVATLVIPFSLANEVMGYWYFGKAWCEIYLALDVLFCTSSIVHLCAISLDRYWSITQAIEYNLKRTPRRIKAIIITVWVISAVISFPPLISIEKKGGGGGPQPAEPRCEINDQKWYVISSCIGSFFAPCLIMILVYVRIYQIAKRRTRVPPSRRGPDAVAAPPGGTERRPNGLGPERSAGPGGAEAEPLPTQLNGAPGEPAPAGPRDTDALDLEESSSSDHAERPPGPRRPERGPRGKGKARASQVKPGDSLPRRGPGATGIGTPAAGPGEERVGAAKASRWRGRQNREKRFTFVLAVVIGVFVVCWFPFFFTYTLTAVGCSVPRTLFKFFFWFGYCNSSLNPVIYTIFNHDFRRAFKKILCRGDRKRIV", "test": "Selectivity panel: ADRA2A", "assay_type": "cell-based", "procedure": "as §1"}, "[7]": {"system": "Phencyclidine Receptor (PCP)", "test": "Selectivity panel: PCP", "assay_type": "binding", "conditions": "10 µM", "procedure": "as §2"}, "[8]": {"molecular_target": "Muscarinic Receptor 2 (CHRM2) (Homo sapiens, UniProt P08172)", "sequence (P08172 whole entry)": "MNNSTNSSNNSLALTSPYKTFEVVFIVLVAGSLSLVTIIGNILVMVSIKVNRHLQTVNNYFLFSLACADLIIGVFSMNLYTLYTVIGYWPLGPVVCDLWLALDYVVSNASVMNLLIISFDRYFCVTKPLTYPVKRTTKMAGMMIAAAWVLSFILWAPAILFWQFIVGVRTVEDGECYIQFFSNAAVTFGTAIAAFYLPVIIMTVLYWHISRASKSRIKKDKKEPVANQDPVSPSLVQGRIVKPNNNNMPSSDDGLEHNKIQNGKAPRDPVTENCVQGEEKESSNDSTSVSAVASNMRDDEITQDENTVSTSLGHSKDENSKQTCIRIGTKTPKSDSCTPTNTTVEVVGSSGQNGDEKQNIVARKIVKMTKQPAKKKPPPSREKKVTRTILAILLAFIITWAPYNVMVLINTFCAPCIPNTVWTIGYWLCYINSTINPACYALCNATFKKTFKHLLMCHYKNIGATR", "test": "Selectivity panel: CHRM2", "assay_type": "cell-based", "procedure": "as §1"}, "[9]": {"molecular_target": "Adrenoreceptor beta 2 (ADRB2) (Homo sapiens, UniProt P07550)", "sequence (P07550 whole entry)": "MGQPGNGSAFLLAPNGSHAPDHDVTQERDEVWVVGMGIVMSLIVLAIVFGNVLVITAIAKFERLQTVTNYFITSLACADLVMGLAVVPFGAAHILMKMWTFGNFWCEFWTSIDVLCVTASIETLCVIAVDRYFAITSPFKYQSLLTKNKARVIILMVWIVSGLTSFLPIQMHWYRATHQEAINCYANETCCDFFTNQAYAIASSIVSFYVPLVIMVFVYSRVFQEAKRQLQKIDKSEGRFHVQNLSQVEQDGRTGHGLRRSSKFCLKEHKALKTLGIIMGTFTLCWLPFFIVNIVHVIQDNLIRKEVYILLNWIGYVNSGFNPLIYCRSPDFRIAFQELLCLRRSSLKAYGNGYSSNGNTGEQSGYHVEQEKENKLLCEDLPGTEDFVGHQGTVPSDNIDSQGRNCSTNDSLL", "test": "Selectivity panel: ADRB2", "assay_type": "cell-based"}, "Na+/K+ ATPase Pump": {"system": "Na+/K+ ATPase Pump", "test": "Selectivity panel: Na+/K+ ATPase", "assay_type": "biochemical", "conditions": "10 µM"}, "[10]": {"conditions": "0.5 h"}, "[11]": {"molecular_target": "Acetylcholinesterase (AChE) (Homo sapiens, UniProt P22303)", "test": "Selectivity panel: AChE", "assay_type": "biochemical", "conditions": "read-out: I% (antagonistic or inhibitory), AChE", "procedure": "as §2"}, "[12]": {"molecular_target": "Muscarinic Receptor 1 (CHRM1) (Homo sapiens, UniProt P11229)", "sequence (P11229 whole entry)": "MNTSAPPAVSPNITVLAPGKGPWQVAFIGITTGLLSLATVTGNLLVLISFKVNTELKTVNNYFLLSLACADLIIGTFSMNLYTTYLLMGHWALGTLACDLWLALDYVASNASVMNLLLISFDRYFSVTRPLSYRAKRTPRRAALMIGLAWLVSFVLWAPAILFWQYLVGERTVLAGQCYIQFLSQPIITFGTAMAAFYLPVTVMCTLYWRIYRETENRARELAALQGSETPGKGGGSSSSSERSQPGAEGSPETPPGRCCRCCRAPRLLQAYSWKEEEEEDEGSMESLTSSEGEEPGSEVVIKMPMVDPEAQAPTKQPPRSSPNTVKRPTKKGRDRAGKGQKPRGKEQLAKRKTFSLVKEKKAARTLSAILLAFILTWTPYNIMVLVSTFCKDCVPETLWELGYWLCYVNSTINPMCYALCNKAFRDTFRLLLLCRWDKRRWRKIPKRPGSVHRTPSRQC", "test": "Selectivity panel: CHRM1", "assay_type": "cell-based", "procedure": "as §1"}, "Dopamine Receptor 1 (D1)": {"molecular_target": "Dopamine Receptor 1 (D1) (Homo sapiens, UniProt P21728)", "sequence (P21728 whole entry)": "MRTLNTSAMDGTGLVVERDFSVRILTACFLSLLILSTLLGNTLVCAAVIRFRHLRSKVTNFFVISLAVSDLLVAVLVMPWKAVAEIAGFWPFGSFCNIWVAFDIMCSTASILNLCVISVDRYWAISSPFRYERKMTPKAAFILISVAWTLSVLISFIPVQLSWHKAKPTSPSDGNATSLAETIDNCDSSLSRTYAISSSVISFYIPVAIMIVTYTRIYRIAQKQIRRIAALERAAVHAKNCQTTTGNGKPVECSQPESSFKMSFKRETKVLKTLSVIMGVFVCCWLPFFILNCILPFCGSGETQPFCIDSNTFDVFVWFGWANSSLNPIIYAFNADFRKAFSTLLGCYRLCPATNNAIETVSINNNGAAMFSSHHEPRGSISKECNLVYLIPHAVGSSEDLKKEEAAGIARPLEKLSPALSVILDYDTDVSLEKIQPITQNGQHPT", "test": "Selectivity panel: D1", "assay_type": "cell-based", "procedure": "as §1"}, "[13]": {"molecular_target": "Cannabinoid Receptor 2 (CB2) (Homo sapiens, UniProt P34972)", "sequence (P34972 whole entry)": "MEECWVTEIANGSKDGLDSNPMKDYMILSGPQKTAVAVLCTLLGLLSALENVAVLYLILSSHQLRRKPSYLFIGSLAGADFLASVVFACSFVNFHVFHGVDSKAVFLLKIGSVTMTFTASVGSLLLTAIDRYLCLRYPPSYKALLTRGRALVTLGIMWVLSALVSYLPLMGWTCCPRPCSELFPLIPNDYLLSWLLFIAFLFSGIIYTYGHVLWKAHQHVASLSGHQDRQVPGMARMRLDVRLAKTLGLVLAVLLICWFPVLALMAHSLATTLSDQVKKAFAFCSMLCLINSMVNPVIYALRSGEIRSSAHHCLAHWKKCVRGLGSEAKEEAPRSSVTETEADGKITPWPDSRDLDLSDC", "test": "Selectivity panel: CB2", "assay_type": "cell-based", "procedure": "as §1"}},
  "data": [
    {"smiles": "COc1ccc(C(N)=O)cn1", "note": "[JBSNF-000088, 6-methoxynicotinamide]", "values": [
      {"measurement": "plasma clearance as share of hepatic blood flow in mice", "setting": "[1]", "value": "approximately 25%"},
      {"measurement": "E% (agonistic), CB1", "setting": "[2]; 10 µM", "value": 0, "unit": "%"},
      {"measurement": "inhibition at 10 µM", "setting": "[2]; read-out: I% (antagonistic or inhibitory), CB1", "value": 1, "unit": "%"},
      {"measurement": "hERG inhibition", "setting": "hERG", "value": "< 30", "unit": "%"},
      {"measurement": "plasma MNA levels", "setting": "plasma MNA levels; 50 mg kg^−1 orally, C57BL/6 mice, till 4 h post dosing", "value": "Significant reductions"},
      {"measurement": "reduction of plasma MNA levels", "setting": "plasma MNA levels; Discussion statement", "value": "~ 50%"},
      {"measurement": "Cyp Inhibition", "setting": "cytochrome P450 enzymes", "value": ">20", "unit": "µM"},
      {"measurement": "NaV1.5 inhibition", "setting": "NaV1.5", "value": "< 30", "unit": "%"},
      {"measurement": "E% (agonistic), 5HT2A", "setting": "[3]; 10 µM", "value": 3, "unit": "%"},
      {"measurement": "inhibition at 10 µM", "setting": "[3]; read-out: I% (antagonistic or inhibitory), 5HT2A", "value": -9, "unit": "%"},
      {"measurement": "E% (agonistic), ADORA1", "setting": "[4]; 10 µM", "value": -3, "unit": "%"},
      {"measurement": "inhibition at 10 µM", "setting": "[4]; read-out: I% (antagonistic or inhibitory), ADORA1", "value": -1, "unit": "%"},
      {"measurement": "inhibition at 10 µM", "setting": "[5]", "value": 5, "unit": "%"},
      {"measurement": "E% (agonistic), ADRA2A", "setting": "[6]; 10 µM", "value": 4, "unit": "%"},
      {"measurement": "inhibition at 10 µM", "setting": "[6]; read-out: I% (antagonistic or inhibitory), ADRA2A", "value": -12, "unit": "%"},
      {"measurement": "I% (antagonistic or inhibitory), PCP", "setting": "[7]", "value": -11, "unit": "%"},
      {"measurement": "E% (agonistic), CHRM2", "setting": "[8]; 10 µM", "value": 13, "unit": "%"},
      {"measurement": "inhibition at 10 µM", "setting": "[8]; read-out: I% (antagonistic or inhibitory), CHRM2", "value": 3, "unit": "%"},
      {"measurement": "E% (agonistic), ADRB2", "setting": "[9]; 10 µM", "value": 1, "unit": "%"},
      {"measurement": "inhibition at 10 µM", "setting": "[9]; read-out: I% (antagonistic or inhibitory), ADRB2", "value": 1, "unit": "%"},
      {"measurement": "I% (antagonistic or inhibitory), Na+/K+ ATPase Pump", "setting": "Na+/K+ ATPase Pump", "value": 0, "unit": "%"},
      {"measurement": "Metabolic stability human microsomes (% remaining)", "setting": "[10]", "value": 90, "unit": "%"},
      {"measurement": "inhibition at 10 µM", "setting": "[11]", "value": 2, "unit": "%"},
      {"measurement": "E% (agonistic), CHRM1", "setting": "[12]; 10 µM", "value": -3, "unit": "%"},
      {"measurement": "inhibition at 10 µM", "setting": "[12]; read-out: I% (antagonistic or inhibitory), CHRM1", "value": -7, "unit": "%"},
      {"measurement": "E% (agonistic), D1", "setting": "Dopamine Receptor 1 (D1); 10 µM", "value": 0, "unit": "%"},
      {"measurement": "inhibition at 10 µM", "setting": "Dopamine Receptor 1 (D1); read-out: I% (antagonistic or inhibitory), D1", "value": -3, "unit": "%"},
      {"measurement": "E% (agonistic), CB2", "setting": "[13]; 10 µM", "value": -7, "unit": "%"},
      {"measurement": "inhibition at 10 µM", "setting": "[13]; read-out: I% (antagonistic or inhibitory), CB2", "value": 1, "unit": "%"}
    ]}
  ]
}
